From the kinase profiling compilation of Christmann-Franck et al. (2016)

Legend:
Assay in all cases: radiometric filter-binding kinase assay
AURKB (human) = AURKB (human) (UniProt Q96GD4)
BRSK1 (human) = BRSK1 (human) (UniProt Q8TDC3)
BTK (human) = BTK (human) (UniProt Q06187)
CAMKK2 (human) = CAMKK2 (human) (UniProt Q96RR4); details: compound 10.0 µM
CSK (human) = CSK (human) (UniProt P41240)
CSNK1D (human) = CSNK1D (human) (UniProt P48730)
CaMK1 (human) = CaMK1 (human) (UniProt Q14012)
DYRK1A (human) = DYRK1A (human) (UniProt Q13627)
DYRK2 (human) = DYRK2 (human) (UniProt Q92630)
EPHA4 (human) = EPHA4 (human) (UniProt P54764)
EPHB2 (human) = EPHB2 (human) (UniProt P29323)
EPHB3 (human) = EPHB3 (human) (UniProt P54753)
HIPK2 (human) = HIPK2 (human) (UniProt Q9H2X6)
IGF1R (human) = IGF1R (human) (UniProt P08069)
IKBKB (human) = IKBKB (human) (UniProt O14920); details: compound 10.0 µM
MAP2K2 (human) = MAP2K2 (human) (UniProt P36507)
MAP3K11 (human) = MAP3K11 (human) (UniProt Q16584)
MAP3K7 TAB1 (human) = MAP3K7 TAB1 (human) (UniProt Q15750+O43318)
MAPK12 (human) = MAPK12 (human) (UniProt P53778)
MAPK14 (human) = MAPK14 (human) (UniProt Q16539)
MAPK15 (human) = MAPK15 (human) (UniProt Q8TD08)
MAPK8 (human) = MAPK8 (human) (UniProt P45983)
MAPK9 (human) = MAPK9 (human) (UniProt P45984)
MAPKAPK2 (human) = MAPKAPK2 (human) (UniProt P49137)
MAPKAPK5 (human) = MAPKAPK5 (human) (UniProt Q8IW41); details: compound 10.0 µM
MELK (human) = MELK (human) (UniProt Q14680)
MINK1 (human) = MINK1 (human) (UniProt Q8N4C8)
MKNK2 (human) = MKNK2 (human) (UniProt Q9HBH9)
PAK4 (human) = PAK4 (human) (UniProt O96013)
PAK7 (human) = PAK7 (human) (UniProt Q9P286)
PIM1 (human) = PIM1 (human) (UniProt P11309)
PRKACA (human) = PRKACA (human) (UniProt P17612)
RIPK2 (human) = RIPK2 (human) (UniProt O43353)
YES1 (human) = YES1 (human) (UniProt P07947)
IKBKE (human) = IKBKE (human) (UniProt Q14164)

Chain of CSNK1D (human) (P48730 whole entry, looked up): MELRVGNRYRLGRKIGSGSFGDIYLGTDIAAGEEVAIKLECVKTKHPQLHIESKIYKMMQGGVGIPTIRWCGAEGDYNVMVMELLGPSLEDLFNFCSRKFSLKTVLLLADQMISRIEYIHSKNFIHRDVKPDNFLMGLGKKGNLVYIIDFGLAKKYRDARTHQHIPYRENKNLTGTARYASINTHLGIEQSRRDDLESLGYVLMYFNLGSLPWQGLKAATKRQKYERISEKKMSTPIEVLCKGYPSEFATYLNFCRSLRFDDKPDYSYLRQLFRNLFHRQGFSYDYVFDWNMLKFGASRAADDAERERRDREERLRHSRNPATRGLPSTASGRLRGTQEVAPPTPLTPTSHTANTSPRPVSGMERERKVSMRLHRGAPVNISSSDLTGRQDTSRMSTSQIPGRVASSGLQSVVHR
Chain of CaMK1 (human) (Q14012 whole entry, looked up): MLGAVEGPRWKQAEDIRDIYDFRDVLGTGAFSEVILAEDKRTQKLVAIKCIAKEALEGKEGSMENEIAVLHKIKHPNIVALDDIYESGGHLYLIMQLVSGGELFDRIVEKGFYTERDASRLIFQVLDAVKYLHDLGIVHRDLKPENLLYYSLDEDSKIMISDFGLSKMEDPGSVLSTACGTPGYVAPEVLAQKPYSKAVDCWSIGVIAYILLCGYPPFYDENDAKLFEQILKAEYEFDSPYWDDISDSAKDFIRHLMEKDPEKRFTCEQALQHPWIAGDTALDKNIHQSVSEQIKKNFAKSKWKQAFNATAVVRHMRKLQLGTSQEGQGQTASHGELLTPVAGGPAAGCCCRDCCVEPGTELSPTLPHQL
Chain of MAP3K11 (human) (Q16584 whole entry, looked up): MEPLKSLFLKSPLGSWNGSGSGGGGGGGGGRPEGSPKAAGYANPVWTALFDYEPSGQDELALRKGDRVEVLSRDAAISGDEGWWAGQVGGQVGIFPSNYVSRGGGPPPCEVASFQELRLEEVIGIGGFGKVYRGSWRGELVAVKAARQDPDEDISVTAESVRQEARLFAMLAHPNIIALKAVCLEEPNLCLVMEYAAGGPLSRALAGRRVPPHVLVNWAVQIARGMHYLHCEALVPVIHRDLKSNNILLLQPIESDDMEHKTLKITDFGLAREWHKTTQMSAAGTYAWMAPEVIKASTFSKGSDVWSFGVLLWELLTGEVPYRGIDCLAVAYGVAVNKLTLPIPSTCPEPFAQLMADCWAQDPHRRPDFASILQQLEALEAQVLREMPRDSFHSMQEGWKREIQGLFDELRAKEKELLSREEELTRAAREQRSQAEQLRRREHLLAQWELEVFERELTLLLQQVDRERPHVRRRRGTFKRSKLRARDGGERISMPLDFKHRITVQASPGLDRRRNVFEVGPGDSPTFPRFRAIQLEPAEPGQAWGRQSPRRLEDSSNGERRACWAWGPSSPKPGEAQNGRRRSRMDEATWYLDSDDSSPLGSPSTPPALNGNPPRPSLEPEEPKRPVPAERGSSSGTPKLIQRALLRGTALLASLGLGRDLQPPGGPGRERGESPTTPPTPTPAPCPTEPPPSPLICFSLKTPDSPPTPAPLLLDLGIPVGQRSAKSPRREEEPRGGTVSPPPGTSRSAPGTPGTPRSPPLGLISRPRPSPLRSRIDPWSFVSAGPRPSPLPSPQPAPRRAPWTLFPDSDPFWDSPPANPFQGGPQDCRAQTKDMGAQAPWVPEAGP
Chain of MAPK15 (human) (Q8TD08 whole entry, looked up): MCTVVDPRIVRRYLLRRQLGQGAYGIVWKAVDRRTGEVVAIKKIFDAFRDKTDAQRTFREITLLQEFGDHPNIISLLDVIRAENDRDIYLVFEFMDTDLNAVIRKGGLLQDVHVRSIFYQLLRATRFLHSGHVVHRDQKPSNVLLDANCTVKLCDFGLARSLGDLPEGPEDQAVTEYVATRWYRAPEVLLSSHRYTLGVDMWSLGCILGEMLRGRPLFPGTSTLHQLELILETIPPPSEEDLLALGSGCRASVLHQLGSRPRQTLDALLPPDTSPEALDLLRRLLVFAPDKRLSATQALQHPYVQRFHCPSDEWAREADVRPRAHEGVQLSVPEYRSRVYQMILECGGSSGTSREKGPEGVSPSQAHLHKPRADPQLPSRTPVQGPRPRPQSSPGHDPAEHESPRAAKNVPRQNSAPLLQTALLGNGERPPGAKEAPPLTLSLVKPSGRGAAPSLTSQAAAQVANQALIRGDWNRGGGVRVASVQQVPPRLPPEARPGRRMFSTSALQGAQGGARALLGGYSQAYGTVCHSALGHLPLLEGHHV
Chain of MAPK14 (human) (Q16539 whole entry, looked up): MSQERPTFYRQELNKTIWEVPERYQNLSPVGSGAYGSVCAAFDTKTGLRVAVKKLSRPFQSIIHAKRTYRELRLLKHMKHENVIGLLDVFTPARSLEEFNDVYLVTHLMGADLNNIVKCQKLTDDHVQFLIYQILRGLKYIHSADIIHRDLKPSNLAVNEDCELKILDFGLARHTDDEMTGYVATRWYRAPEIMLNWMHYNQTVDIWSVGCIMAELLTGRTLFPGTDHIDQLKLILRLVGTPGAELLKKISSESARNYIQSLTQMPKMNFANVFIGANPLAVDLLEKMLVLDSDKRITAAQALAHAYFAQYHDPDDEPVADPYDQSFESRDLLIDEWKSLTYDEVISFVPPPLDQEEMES
Chain of MKNK2 (human) (Q9HBH9 whole entry, looked up): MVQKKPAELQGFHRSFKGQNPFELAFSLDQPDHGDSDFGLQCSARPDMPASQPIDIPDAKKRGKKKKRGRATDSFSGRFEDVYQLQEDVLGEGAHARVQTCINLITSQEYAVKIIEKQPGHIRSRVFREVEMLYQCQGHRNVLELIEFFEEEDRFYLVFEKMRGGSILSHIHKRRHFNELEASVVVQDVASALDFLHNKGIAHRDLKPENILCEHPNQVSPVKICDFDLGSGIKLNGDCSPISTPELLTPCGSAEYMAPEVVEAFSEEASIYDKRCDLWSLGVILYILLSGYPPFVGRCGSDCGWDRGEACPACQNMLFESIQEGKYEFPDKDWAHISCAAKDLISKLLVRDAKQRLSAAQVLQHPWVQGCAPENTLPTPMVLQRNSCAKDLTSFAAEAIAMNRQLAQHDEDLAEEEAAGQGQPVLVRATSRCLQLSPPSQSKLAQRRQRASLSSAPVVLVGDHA
Chain of MAP3K7 TAB1 (human) (O43318 whole entry, looked up): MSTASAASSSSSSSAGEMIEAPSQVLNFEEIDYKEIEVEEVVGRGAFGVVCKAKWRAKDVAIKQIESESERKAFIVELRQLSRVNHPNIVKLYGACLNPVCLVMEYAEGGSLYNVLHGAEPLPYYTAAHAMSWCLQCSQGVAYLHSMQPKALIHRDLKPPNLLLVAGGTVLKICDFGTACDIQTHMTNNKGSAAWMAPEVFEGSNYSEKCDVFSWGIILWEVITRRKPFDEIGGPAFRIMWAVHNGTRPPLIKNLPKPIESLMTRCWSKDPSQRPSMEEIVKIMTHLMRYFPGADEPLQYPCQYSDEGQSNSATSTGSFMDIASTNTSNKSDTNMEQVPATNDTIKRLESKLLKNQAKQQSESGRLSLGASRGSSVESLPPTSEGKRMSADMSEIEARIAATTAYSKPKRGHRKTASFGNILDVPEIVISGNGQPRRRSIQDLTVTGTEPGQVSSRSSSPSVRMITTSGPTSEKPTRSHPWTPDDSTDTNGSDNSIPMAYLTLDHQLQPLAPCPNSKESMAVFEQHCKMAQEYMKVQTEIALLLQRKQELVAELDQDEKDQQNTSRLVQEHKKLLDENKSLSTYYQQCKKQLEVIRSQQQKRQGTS
Chain of MAP3K7 TAB1 (human) (Q15750 whole entry, looked up): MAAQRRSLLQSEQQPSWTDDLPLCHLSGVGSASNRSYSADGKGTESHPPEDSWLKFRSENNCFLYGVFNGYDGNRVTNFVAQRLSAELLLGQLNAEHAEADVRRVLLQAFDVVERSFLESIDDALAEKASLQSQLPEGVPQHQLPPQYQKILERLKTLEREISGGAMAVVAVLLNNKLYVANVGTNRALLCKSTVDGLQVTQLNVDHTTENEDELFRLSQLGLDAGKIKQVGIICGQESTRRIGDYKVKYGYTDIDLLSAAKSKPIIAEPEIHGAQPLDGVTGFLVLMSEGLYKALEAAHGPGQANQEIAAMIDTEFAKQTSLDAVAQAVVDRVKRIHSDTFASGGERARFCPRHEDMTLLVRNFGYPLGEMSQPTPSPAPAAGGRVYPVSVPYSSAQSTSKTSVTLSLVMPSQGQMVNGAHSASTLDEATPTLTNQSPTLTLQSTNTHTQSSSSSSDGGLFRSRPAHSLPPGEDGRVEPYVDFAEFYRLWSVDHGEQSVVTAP
Chain of MAPK12 (human) (P53778 whole entry, looked up): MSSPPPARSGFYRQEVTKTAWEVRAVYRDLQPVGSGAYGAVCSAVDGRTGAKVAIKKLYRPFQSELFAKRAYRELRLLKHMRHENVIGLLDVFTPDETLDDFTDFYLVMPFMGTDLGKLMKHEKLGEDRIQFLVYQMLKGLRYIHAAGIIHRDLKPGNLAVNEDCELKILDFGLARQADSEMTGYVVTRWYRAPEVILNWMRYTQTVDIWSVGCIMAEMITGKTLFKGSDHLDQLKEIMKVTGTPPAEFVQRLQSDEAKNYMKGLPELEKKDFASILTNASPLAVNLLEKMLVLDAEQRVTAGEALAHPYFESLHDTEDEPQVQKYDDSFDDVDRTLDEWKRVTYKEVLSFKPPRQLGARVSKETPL
Chain of AURKB (human) (Q96GD4 whole entry, looked up): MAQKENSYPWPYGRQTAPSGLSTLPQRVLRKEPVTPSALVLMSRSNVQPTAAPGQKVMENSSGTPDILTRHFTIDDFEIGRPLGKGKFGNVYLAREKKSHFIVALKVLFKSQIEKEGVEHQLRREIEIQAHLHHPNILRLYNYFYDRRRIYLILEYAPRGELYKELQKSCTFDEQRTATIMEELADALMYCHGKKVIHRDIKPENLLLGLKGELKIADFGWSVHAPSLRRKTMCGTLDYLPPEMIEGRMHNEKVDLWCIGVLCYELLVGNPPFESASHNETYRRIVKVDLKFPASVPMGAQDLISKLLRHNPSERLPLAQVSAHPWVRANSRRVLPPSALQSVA

With `O=S(=O)(c1ccc(F)c2nonc12)N1CCN(c2ncc(C(F)(F)F)cc2Cl)CC1` the residual activity (AURKB (human); compound 10.0 µM) was 96%, the residual activity (BRSK1 (human); compound 10.0 µM) was 109% and the residual activity (BTK (human); compound 10.0 µM) was 86%. The residual activity (CAMKK2 (human)) was 83%, the residual activity (CSK (human); compound 10.0 µM) was 90% and the residual activity (CSNK1D (human); compound 10.0 µM) was 79%. The residual activity (CaMK1 (human); compound 10.0 µM) was 92%, the residual activity (DYRK1A (human); compound 10.0 µM) was 72% and the residual activity (DYRK2 (human); compound 10.0 µM) was 107%. For the same molecule, the residual activity (EPHA4 (human); compound 10.0 µM) was 90%, the residual activity (EPHB2 (human); compound 10.0 µM) was 102% and the residual activity (EPHB3 (human); compound 10.0 µM) was 86%. The residual activity (HIPK2 (human); compound 10.0 µM) was 97%, the residual activity (IGF1R (human); compound 10.0 µM) was 93% and the residual activity (IKBKB (human)) was 89%. It also gave a residual activity (MAP2K2 (human); compound 10.0 µM) of 99%, a residual activity (MAP3K11 (human); compound 10.0 µM) of 89% and a residual activity (MAP3K7 TAB1 (human); compound 10.0 µM) of 98%. The residual activity (MAPK12 (human); compound 10.0 µM) was 72%, the residual activity (MAPK14 (human); compound 10.0 µM) was 74% and the residual activity (MAPK15 (human); compound 10.0 µM) was 79%. For the same molecule, the residual activity (MAPK8 (human); compound 10.0 µM) was 88%, the residual activity (MAPK9 (human); compound 10.0 µM) was 87% and the residual activity (MAPKAPK2 (human); compound 10.0 µM) was 86%. It also gave a residual activity (MAPKAPK5 (human)) of 85%, a residual activity (MELK (human); compound 10.0 µM) of 107% and a residual activity (MINK1 (human); compound 10.0 µM) of 89%. For the same molecule, the residual activity (MKNK2 (human); compound 10.0 µM) was 92%, the residual activity (PAK4 (human); compound 10.0 µM) was 83% and the residual activity (PAK7 (human); compound 10.0 µM) was 92%. The residual activity (PIM1 (human); compound 10.0 µM) was 88%, the residual activity (PRKACA (human); compound 10.0 µM) was 103% and the residual activity (RIPK2 (human); compound 10.0 µM) was 109%. It also gave a residual activity (YES1 (human); compound 10.0 µM) of 105%.
For `CCOC(=O)c1ccc(N2NC(=O)/C(=C/c3ccc([N+](=O)[O-])o3)C2=O)cc1`, the residual activity (AURKB (human); compound 10.0 µM) was 102%, the residual activity (BRSK1 (human); compound 10.0 µM) was 86% and the residual activity (BTK (human); compound 10.0 µM) was 70%. It also gave a residual activity (CAMKK2 (human)) of 125%, a residual activity (CSNK1D (human); compound 10.0 µM) of 112% and a residual activity (CaMK1 (human); compound 10.0 µM) of 102%. The residual activity (DYRK1A (human); compound 10.0 µM) was 70%, the residual activity (DYRK2 (human); compound 10.0 µM) was 54% and the residual activity (EPHA4 (human); compound 10.0 µM) was 75%. For the same molecule, the residual activity (EPHB2 (human); compound 10.0 µM) was 81%, the residual activity (EPHB3 (human); compound 10.0 µM) was 100% and the residual activity (IKBKB (human)) was 108%. For the same molecule, the residual activity (IKBKE (human); compound 10.0 µM) was 156%, the residual activity (MAP2K2 (human); compound 10.0 µM) was 9% and the residual activity (MAP3K11 (human); compound 10.0 µM) was 100%. It also gave a residual activity (MAP3K7 TAB1 (human); compound 10.0 µM) of 102%, a residual activity (MAPK12 (human); compound 10.0 µM) of 112% and a residual activity (MAPK14 (human); compound 10.0 µM) of 105%. The residual activity (MAPK15 (human); compound 10.0 µM) was 86%, the residual activity (MAPK8 (human); compound 10.0 µM) was 117% and the residual activity (MAPK9 (human); compound 10.0 µM) was 93%. It also gave a residual activity (MAPKAPK2 (human); compound 10.0 µM) of 78%, a residual activity (MAPKAPK5 (human)) of 97% and a residual activity (MELK (human); compound 10.0 µM) of 82%. The residual activity (MINK1 (human); compound 10.0 µM) was 73%, the residual activity (MKNK2 (human); compound 10.0 µM) was 89% and the residual activity (PAK4 (human); compound 10.0 µM) was 55%. The residual activity (PAK7 (human); compound 10.0 µM) was 118%, the residual activity (PIM1 (human); compound 10.0 µM) was 109% and the residual activity (PRKACA (human); compound 10.0 µM) was 95%. The residual activity (RIPK2 (human); compound 10.0 µM) was 134% and the residual activity (YES1 (human); compound 10.0 µM) was 110%.
`C=C1C(=O)OC2C1CC/C(C)=C/CCC1(C)OC21` (stereo not given) showed a residual activity (AURKB (human); compound 1.0 µM) of 106%, a residual activity (AURKB (human); compound 5.0 µM) of 99% and a residual activity (BRSK1 (human); compound 1.0 µM) of 109%. For the same molecule, the residual activity (BRSK1 (human); compound 5.0 µM) was 108%, the residual activity (BTK (human); compound 1.0 µM) was 117% and the residual activity (BTK (human); compound 5.0 µM) was 85%. It also gave a residual activity (CSK (human); compound 5.0 µM) of 98%, a residual activity (CSNK1D (human); compound 1.0 µM) of 99% and a residual activity (CaMK1 (human); compound 1.0 µM) of 116%. The residual activity (CaMK1 (human); compound 5.0 µM) was 104%, the residual activity (DYRK1A (human); compound 1.0 µM) was 120% and the residual activity (DYRK1A (human); compound 5.0 µM) was 101%. It also gave a residual activity (DYRK2 (human); compound 1.0 µM) of 113%, a residual activity (DYRK2 (human); compound 5.0 µM) of 101% and a residual activity (EPHA4 (human); compound 1.0 µM) of 110%. For the same molecule, the residual activity (EPHA4 (human); compound 5.0 µM) was 87%, the residual activity (EPHB2 (human); compound 1.0 µM) was 72% and the residual activity (EPHB2 (human); compound 5.0 µM) was 78%. For the same molecule, the residual activity (EPHB3 (human); compound 1.0 µM) was 95%, the residual activity (EPHB3 (human); compound 5.0 µM) was 115% and the residual activity (HIPK2 (human); compound 1.0 µM) was 124%. It also gave a residual activity (HIPK2 (human); compound 5.0 µM) of 113%, a residual activity (IGF1R (human); compound 1.0 µM) of 120% and a residual activity (IGF1R (human); compound 5.0 µM) of 109%. For the same molecule, the residual activity (IKBKE (human); compound 1.0 µM) was 112%, the residual activity (IKBKE (human); compound 5.0 µM) was 108% and the residual activity (MAP2K2 (human); compound 5.0 µM) was 109%. For the same molecule, the residual activity (MAP3K11 (human); compound 1.0 µM) was 104%, the residual activity (MAP3K11 (human); compound 5.0 µM) was 116% and the residual activity (MAP3K7 TAB1 (human); compound 1.0 µM) was 109%. It also gave a residual activity (MAPK12 (human); compound 1.0 µM) of 108%, a residual activity (MAPK12 (human); compound 5.0 µM) of 115% and a residual activity (MAPK14 (human); compound 1.0 µM) of 105%. The residual activity (MAPK14 (human); compound 5.0 µM) was 111%, the residual activity (MAPK15 (human); compound 1.0 µM) was 98% and the residual activity (MAPK15 (human); compound 5.0 µM) was 119%. For the same molecule, the residual activity (MAPK8 (human); compound 1.0 µM) was 104%, the residual activity (MAPK8 (human); compound 5.0 µM) was 102% and the residual activity (MAPK9 (human); compound 1.0 µM) was 114%. For the same molecule, the residual activity (MAPK9 (human); compound 5.0 µM) was 110%, the residual activity (MAPKAPK2 (human); compound 1.0 µM) was 72% and the residual activity (MAPKAPK2 (human); compound 5.0 µM) was 64%. The residual activity (MELK (human); compound 1.0 µM) was 138%, the residual activity (MELK (human); compound 5.0 µM) was 100% and the residual activity (MINK1 (human); compound 1.0 µM) was 108%. For the same molecule, the residual activity (MINK1 (human); compound 5.0 µM) was 122%, the residual activity (MKNK2 (human); compound 1.0 µM) was 113% and the residual activity (MKNK2 (human); compound 5.0 µM) was 117%. The residual activity (PAK4 (human); compound 1.0 µM) was 93%, the residual activity (PAK4 (human); compound 5.0 µM) was 104% and the residual activity (PAK7 (human); compound 1.0 µM) was 117%. It also gave a residual activity (PAK7 (human); compound 5.0 µM) of 98%, a residual activity (PIM1 (human); compound 1.0 µM) of 97% and a residual activity (PIM1 (human); compound 5.0 µM) of 108%. The residual activity (PRKACA (human); compound 1.0 µM) was 121%, the residual activity (PRKACA (human); compound 5.0 µM) was 103% and the residual activity (RIPK2 (human); compound 1.0 µM) was 101%. For the same molecule, the residual activity (RIPK2 (human); compound 5.0 µM) was 112% and the residual activity (YES1 (human); compound 5.0 µM) was 109%.
